Experimental data: paper doi:10.1101/2021.04.08.439011v1 (biorxiv, 2021)

Tests used:
ACVR2A = ACVR2A (Homo sapiens, UniProt P27037); conditions: 1 µM; binder
PIP5K1A = PIP5K1A (Homo sapiens, UniProt Q99755); conditions: 1 µM; binder
PIK3CA(H1047Y) = PIK3CA(H1047Y) (Homo sapiens, UniProt P42336, H1047Y); conditions: 1 µM; binder
PIK3CA(E542K) = PIK3CA(E542K) (Homo sapiens, UniProt P42336, E542K); conditions: 1 µM; binder
IKK-epsilon = IKK-epsilon (Homo sapiens, UniProt Q14164); conditions: 1 µM; binder
Chain of IKK-epsilon (Q14164 whole entry): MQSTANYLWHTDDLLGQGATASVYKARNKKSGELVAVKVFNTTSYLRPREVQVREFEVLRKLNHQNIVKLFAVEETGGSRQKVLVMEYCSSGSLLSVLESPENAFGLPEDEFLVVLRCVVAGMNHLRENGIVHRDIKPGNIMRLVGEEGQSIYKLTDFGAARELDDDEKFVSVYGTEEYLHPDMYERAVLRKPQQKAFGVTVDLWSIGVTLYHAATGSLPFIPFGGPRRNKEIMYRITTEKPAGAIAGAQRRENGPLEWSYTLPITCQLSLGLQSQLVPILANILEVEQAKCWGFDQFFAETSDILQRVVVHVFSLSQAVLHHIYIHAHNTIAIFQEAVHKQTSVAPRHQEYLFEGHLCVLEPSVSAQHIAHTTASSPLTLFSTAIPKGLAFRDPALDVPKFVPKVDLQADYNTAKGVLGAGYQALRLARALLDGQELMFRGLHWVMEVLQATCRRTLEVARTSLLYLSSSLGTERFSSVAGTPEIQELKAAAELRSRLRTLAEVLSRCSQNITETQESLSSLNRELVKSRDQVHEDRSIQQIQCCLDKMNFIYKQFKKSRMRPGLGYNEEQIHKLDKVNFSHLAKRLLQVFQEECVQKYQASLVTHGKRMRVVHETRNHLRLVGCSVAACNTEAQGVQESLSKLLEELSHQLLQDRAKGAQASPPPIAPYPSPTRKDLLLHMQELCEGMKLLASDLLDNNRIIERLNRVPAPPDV

ACVR1B = ACVR1B (Homo sapiens, UniProt P36896); conditions: 1 µM; binder
AURKC = AURKC (Homo sapiens, UniProt Q9UQB9); conditions: 1 µM; binder
NLK = NLK (Homo sapiens, UniProt Q9UBE8); conditions: 1 µM; binder
RPS6KA5 = RPS6KA5 (Homo sapiens, UniProt O75582); conditions: Kin.Dom.1 N-terminal; binder
Chain of RPS6KA5 (O75582 whole entry): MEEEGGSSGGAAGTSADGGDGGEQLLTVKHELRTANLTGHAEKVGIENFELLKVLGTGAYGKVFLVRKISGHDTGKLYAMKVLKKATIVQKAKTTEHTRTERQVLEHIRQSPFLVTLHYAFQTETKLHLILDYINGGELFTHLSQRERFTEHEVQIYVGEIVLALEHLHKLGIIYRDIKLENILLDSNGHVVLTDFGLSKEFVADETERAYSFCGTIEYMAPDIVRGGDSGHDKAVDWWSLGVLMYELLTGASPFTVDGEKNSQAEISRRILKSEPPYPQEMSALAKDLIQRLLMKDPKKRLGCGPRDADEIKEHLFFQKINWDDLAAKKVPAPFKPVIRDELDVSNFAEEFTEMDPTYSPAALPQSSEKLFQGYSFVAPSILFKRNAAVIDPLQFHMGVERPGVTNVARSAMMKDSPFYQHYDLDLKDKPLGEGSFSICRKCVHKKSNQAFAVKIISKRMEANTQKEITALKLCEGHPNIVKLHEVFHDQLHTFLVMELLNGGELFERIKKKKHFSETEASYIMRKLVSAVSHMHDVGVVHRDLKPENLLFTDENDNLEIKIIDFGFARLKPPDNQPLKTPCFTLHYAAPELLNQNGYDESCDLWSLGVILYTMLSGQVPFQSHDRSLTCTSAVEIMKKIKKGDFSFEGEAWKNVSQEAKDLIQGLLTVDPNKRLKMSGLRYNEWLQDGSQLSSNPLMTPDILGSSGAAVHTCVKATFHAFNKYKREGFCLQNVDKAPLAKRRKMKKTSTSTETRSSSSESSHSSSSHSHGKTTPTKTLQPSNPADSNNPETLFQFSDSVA

PLK2 = PLK2 (Homo sapiens, UniProt Q9NYY3); conditions: 1 µM; binder
TXK = TXK (Homo sapiens, UniProt P42681); conditions: 1 µM; binder
ZAK = ZAK (Homo sapiens, UniProt Q9NYL2); conditions: 1 µM; binder
Chain of ZAK (Q9NYL2 whole entry): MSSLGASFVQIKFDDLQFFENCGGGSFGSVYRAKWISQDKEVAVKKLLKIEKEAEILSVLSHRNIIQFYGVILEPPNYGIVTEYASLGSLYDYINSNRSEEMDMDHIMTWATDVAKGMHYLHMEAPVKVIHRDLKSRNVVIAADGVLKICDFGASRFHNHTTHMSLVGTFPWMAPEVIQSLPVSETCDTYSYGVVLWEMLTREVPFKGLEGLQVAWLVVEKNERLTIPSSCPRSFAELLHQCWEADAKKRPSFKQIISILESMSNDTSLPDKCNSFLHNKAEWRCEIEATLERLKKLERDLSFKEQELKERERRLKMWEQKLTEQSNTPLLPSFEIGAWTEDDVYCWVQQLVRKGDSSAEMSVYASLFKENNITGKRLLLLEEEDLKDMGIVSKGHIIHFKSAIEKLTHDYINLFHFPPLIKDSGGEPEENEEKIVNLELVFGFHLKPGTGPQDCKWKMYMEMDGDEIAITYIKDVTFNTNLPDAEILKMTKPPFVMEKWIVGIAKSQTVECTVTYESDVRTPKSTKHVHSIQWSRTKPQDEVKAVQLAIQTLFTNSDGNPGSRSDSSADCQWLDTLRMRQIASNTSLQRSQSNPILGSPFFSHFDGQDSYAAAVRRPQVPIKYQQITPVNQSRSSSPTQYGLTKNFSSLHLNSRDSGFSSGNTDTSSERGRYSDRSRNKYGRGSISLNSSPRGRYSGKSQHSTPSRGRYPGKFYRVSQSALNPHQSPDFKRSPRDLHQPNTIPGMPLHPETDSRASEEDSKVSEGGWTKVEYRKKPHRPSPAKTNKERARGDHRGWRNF

MARK4 = MARK4 (Homo sapiens, UniProt Q96L34); conditions: 1 µM; binder
EGFR(T790M) = EGFR(T790M) (Homo sapiens, UniProt P00533, T790M); conditions: 1 µM; binder
TNIK = TNIK (Homo sapiens, UniProt Q9UKE5); conditions: 1 µM; binder
INSRR = INSRR (Homo sapiens, UniProt P14616); conditions: 1 µM; binder
MAP3K15 = MAP3K15 (Homo sapiens, UniProt Q6ZN16); conditions: 1 µM; binder
GAK = GAK (Homo sapiens, UniProt O14976); conditions: 1 µM; binder
PDGFRB = PDGFRB (Homo sapiens, UniProt P09619); conditions: 1 µM; binder
PDPK1 = PDPK1 (Homo sapiens, UniProt O15530); conditions: 1 µM; binder
FER = FER (Homo sapiens, UniProt P16591); conditions: 1 µM; binder
CAMK2A = CAMK2A (Homo sapiens, UniProt Q9UQM7); conditions: 1 µM; binder
SgK110 = SgK110 (Homo sapiens, UniProt P0C264); conditions: 1 µM; binder
Chain of SgK110 (P0C264 whole entry): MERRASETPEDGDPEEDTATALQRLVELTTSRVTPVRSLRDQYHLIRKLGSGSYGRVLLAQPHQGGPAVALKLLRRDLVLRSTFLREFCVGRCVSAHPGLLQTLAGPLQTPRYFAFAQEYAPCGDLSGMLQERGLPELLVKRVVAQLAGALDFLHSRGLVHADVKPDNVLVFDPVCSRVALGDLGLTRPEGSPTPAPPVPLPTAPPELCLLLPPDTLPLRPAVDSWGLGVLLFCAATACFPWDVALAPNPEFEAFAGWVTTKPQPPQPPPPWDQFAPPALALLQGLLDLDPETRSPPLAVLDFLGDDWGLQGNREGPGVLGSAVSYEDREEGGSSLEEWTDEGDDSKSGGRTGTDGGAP

ITK = ITK (Homo sapiens, UniProt Q08881); conditions: 1 µM; binder
AKT2 = AKT2 (Homo sapiens, UniProt P31751); conditions: 1 µM; binder
Chain of AKT2 (P31751 whole entry): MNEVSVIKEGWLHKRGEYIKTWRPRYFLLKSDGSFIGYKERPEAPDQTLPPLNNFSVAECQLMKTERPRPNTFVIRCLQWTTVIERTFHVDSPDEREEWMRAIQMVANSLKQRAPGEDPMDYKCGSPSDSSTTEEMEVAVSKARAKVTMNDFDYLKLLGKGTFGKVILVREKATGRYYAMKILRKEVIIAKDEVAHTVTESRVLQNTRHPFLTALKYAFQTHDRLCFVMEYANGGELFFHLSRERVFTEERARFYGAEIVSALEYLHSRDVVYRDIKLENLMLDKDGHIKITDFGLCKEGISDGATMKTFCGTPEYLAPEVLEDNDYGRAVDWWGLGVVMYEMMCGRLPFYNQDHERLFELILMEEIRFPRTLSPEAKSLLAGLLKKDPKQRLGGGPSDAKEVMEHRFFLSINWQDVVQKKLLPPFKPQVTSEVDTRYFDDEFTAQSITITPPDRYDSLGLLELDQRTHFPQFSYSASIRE

DRAK2 = DRAK2 (Homo sapiens, UniProt O94768); conditions: 1 µM; binder
Chain of DRAK2 (O94768 whole entry): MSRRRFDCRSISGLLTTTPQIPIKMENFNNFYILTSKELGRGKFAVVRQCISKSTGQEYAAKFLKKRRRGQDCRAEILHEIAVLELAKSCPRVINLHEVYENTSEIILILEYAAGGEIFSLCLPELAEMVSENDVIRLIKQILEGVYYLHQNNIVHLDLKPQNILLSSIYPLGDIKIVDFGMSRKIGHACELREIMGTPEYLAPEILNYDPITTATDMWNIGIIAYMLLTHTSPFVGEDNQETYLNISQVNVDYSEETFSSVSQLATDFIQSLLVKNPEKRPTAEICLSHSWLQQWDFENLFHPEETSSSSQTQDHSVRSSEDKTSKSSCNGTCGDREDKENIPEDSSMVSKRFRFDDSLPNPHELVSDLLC

DAPK3 = DAPK3 (Homo sapiens, UniProt O43293); conditions: 1 µM; binder
Chain of DAPK3 (O43293 whole entry): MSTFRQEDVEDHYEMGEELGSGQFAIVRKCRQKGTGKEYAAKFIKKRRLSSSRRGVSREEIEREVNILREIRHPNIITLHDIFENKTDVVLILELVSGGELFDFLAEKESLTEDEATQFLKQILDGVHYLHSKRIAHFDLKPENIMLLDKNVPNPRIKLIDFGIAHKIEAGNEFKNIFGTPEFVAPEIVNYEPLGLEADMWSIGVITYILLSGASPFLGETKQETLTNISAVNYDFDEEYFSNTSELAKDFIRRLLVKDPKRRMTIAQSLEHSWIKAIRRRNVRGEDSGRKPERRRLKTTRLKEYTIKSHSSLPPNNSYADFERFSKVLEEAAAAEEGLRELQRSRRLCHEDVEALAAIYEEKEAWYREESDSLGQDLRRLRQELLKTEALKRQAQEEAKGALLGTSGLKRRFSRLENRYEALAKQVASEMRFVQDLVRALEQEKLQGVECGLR

FGFR3 = FGFR3 (Homo sapiens, UniProt P22607); conditions: 1 µM; binder
MAP4K2 = MAP4K2 (Homo sapiens, UniProt Q12851); conditions: 1 µM; binder
MST1 = MST1 (Homo sapiens, UniProt Q13043); conditions: 1 µM; binder

Chain of PIK3CA(H1047Y) (P42336 whole entry H1047Y): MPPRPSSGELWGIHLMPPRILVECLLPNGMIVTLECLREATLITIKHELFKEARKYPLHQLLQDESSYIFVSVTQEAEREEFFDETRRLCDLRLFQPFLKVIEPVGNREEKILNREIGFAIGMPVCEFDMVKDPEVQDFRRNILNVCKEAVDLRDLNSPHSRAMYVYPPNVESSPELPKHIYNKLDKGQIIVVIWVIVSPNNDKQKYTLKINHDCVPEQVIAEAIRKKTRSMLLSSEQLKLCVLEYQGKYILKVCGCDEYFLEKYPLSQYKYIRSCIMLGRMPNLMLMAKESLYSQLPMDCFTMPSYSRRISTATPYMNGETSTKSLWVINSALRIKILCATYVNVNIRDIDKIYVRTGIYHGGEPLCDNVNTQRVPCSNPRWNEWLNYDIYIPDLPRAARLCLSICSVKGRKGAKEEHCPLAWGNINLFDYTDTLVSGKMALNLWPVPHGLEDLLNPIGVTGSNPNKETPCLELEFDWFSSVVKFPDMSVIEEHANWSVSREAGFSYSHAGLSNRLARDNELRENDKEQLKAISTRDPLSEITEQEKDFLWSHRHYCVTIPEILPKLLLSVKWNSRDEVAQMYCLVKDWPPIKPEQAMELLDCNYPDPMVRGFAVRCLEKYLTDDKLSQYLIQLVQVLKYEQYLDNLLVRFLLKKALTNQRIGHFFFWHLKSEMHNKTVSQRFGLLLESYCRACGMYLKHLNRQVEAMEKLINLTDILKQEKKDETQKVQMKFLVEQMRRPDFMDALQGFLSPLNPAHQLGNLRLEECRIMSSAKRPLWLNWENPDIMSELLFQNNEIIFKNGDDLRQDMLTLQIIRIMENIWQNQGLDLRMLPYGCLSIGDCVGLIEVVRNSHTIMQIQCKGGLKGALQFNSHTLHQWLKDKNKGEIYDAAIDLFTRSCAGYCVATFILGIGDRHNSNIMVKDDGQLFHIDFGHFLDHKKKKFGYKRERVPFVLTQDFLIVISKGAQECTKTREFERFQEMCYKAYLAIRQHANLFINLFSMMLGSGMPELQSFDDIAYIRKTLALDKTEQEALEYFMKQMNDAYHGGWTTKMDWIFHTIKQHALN

Q: With CNc1ncc2cc(-c3ccc(-c4cccc(C)n4)cc3Cl)c(=O)n(C[C@H]3OC[C@H](N)CO3)c2n1 [compound 6, G-5555] as the molecule, how does the “Percent Control” value (ACVR2A) read?
A: Its value is 100%.

Q: What about the “Percent Control” value (PIP5K1A) of the same molecule?
A: Its value is 67%.

Q: And the “Percent Control” value (PIK3CA(H1047Y))?
A: Its value is 86%.

Q: What about the “Percent Control” value (PIK3CA(E542K)) of the same molecule?
A: Its value is 100%.

Q: And the “Percent Control” value (IKK-epsilon)?
A: The value was 78%.

Q: What about the “Percent Control” value (ACVR1B) of the same molecule?
A: Its value is 96%.

Q: And the “Percent Control” value (AURKC)?
A: Its value is 20%.

Q: And the “Percent Control” value (NLK)?
A: Its value is 17%.

Q: What about the “Percent Control” value (RPS6KA5) of the same molecule?
A: The value was 100%.

Q: And the “Percent Control” value (PLK2)?
A: Its value is 84%.

Q: And the “Percent Control” value (TXK)?
A: Its value is 100%.

Q: And the “Percent Control” value (ZAK)?
A: The value was 100%.

Q: And the “Percent Control” value (MARK4)?
A: The value was 100%.

Q: And the “Percent Control” value (EGFR(T790M))?
A: The value was 85%.

Q: And the “Percent Control” value (TNIK)?
A: The value was 51%.

Q: And the “Percent Control” value (INSRR)?
A: Its value is 100%.

Q: And the “Percent Control” value (MAP3K15)?
A: Its value is 48%.

Q: What about the “Percent Control” value (GAK) of the same molecule?
A: Its value is 1.7%.

Q: What about the “Percent Control” value (PDGFRB) of the same molecule?
A: Its value is 84%.

Q: What about the “Percent Control” value (PDPK1) of the same molecule?
A: The value was 71%.

Q: What about the “Percent Control” value (FER) of the same molecule?
A: Its value is 100%.

Q: And the “Percent Control” value (CAMK2A)?
A: Its value is 88%.

Q: And the “Percent Control” value (SgK110)?
A: The value was 71%.

Q: And the “Percent Control” value (ITK)?
A: The value was 100%.

Q: What about the “Percent Control” value (AKT2) of the same molecule?
A: Its value is 100%.

Q: And the “Percent Control” value (DRAK2)?
A: The value was 100%.

Q: And the “Percent Control” value (DAPK3)?
A: The value was 100%.

Q: And the “Percent Control” value (FGFR3)?
A: Its value is 100%.

Q: And the “Percent Control” value (MAP4K2)?
A: Its value is 32%.

Q: What about the “Percent Control” value (MST1) of the same molecule?
A: Its value is 51%.
